Test results taken from patent US10344019B2 (priority 2010, dated 2019).
Like-named read-outs stand apart in the source and are kept apart here.

How the values were obtained:
Assay type in all cases: cell-based
[1] = test system: HCV 1a RLuc cells (dicistronic genotype 1a H77 replicon, RLuc reporter); test: microbe, parasite or virus in culture; conditions: Hepatitis C virus, read-out: 1a
Procedure, shortened: (§1)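 Replicon cells stably carrying the listed RLuc-encoding dicistronic replicons were seeded and treated with DMSO serial dilutions of compound (10 mM stocks) diluted into culture medium. After 72 h, cells were lysed and Renilla luciferase activity measured. EC50 was derived by non-linear regression.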

[2] = test system: HCV 1b RLuc cells (dicistronic genotype 1b Con1 replicon, RLuc reporter); test: microbe, parasite or virus in culture; conditions: Hepatitis C virus, read-out: 1b (nM)
Procedure, shortened: as §1

[3] = test system: HCV 2a JFH-1 Rluc cells (dicistronic genotype 2a JFH-1 replicon, RLuc reporter); test: microbe, parasite or virus in culture; conditions: Hepatitis C virus, read-out: 2a JFH
Procedure, shortened: as §1

[4] = test system: HCV 2b Rluc cells (NS5A chimeric genotype 2a JFH-1 replicon with genotype 2b MD2b-1 NS5A gene, M31 present); test: microbe, parasite or virus in culture; conditions: Hepatitis C virus, read-out: 2b
Procedure, shortened: as §1

[5] = test system: HCV 3a RLuc cells (NS5A chimeric genotype 1b Con1 replicon with consensus genotype 3a NS5A gene); test: microbe, parasite or virus in culture; conditions: Hepatitis C virus
Procedure, shortened: as §1

[6] = test system: HCV 4a Rluc cells (NS5A chimeric genotype 1b Con1 replicon with genotype 4a NS5A gene); test: microbe, parasite or virus in culture; conditions: Hepatitis C virus, read-out: 4a
Procedure, shortened: as §1

[7] = test system: HCV 2a Rluc cells (NS5A chimeric genotype 2a JFH-1 replicon with genotype 2a J6 strain NS5A gene, M31 present); test: HCV replicon reporter assay, genotype 2a J6 (M31 present); conditions: Hepatitis C virus, read-out: 2a J6
Procedure, shortened: as §1

[8] = read-out: 3a, genotype 3a replicon
[9] = genotype 2a JFH-1 RLuc replicon
[10] = read-out: 3a, genotype 3a NS5A chimeric replicon
[11] = genotype 1a H77 replicon, RLuc reporter
[12] = genotype 2a JFH-1 replicon, RLuc reporter
[13] = read-out: 3a, genotype 3a NS5A chimeric 1b Con1 replicon

| SMILES | EC50 ([1]; 72 h, Table 1, genotype 1a H77 replicon, 72 hours) [nM] | EC50 ([2]; 72 h) [nM] | EC50 ([3]; 72 h, Table 1, genotype 2a JFH-1 replicon, 72 hours) [nM] | EC50 [4] [nM] | EC50 ([5]; read-out: 3a, Table 1, genotype 3a NS5A chimeric replicon) [nM] | EC50 [6] [nM] | EC50 [7] [nM] | EC50 ([1]; genotype 1a replicon) [nM] | EC50 [2] [nM] | EC50 ([3]; genotype 2a JFH-1 replicon) [nM] | EC50 [5, 8] [nM] | EC50 ([1]; genotype 1a H77 RLuc replicon) [nM] | EC50 [3, 9] [nM] | EC50 [5, 10] [nM] | EC50 [1, 11] [nM] | EC50 [3, 12] [nM] | EC50 [5, 13] [nM] |
| --- | --- | --- | --- | --- | --- | --- | --- | --- | --- | --- | --- | --- | --- | --- | --- | --- | --- |
| COC(=O)N[C@H](C(=O)N1CCC[C@H]1c1ncc(-c2cc3c4c(c2)C(=O)c2cc(-c5cnc([C@@H]6CCCN6C(=O)[C@@H](NC(=O)OC)C(C)C)[nH]5)cc(c2-4)OC3)[nH]1)C(C)C [Example 24] | 0.001 to 0.999 | 0.013 | 0.001 to 0.999 | > 44 | 0.001 to 0.99 | 0.001 to 0.99 | > 44 | – | – | – | – | – | – | – | – | – | – |
| COC(=O)N[C@H](C(=O)N1[C@@H]2C[C@@H]2C[C@H]1c1nc(Cl)c(-c2ccc(-c3ccc4c(ccc5nc([C@@H]6C[C@H]7C[C@H]7N6C(=O)[C@@H](NC(=O)OC)C(C)C)[nH]c54)c3)cc2F)[nH]1)C(C)C [Example 395] | – | – | – | > 44 | – | 0.001 to 0.99 | > 44 | 0.001 to 0.999 | 0.004 | 0.001 to 0.999 | 0.001 to 0.99 | – | – | – | – | – | – |
| CCCC(=O)N[C@@H](C(=O)N1CCC[C@H]1c1ncc(-c2cc3c4c(c2)OCc2cc(-c5cnc([C@@H]6CCCN6C(=O)[C@H](NC(=O)CCC)c6ccccc6)[nH]5)cc(c2-4)OC3)[nH]1)c1ccccc1 [Example 470] | – | – | – | 0.001 to 0.999 | – | 0.001 to 0.99 | 0.001 to 0.999 | 0.001 to 0.999 | 0.148 | 0.001 to 0.999 | 0.001 to 0.99 | – | – | – | – | – | – |
| O=C(N[C@@H](C(=O)N1CCC[C@H]1c1ncc(-c2cc3c4c(c2)OCc2cc(-c5cnc([C@@H]6CCCN6C(=O)[C@H](NC(=O)C6CC6)c6ccccc6)[nH]5)cc(c2-4)OC3)[nH]1)c1ccccc1)C1CC1 [Example 443] | – | – | – | 0.001 to 0.999 | – | 0.001 to 0.99 | 0.001 to 0.999 | 0.001 to 0.999 | 0.167 | 0.001 to 0.999 | 0.001 to 0.99 | – | – | – | – | – | – |
| O=C(C(c1ccccc1)N1CCCOCC1)N1CCC[C@H]1c1ncc(-c2cc3c4c(c2)OCc2cc(-c5cnc([C@@H]6CCCN6C(=O)C(c6ccccc6)N6CCCOCC6)[nH]5)cc(c2-4)OC3)[nH]1 (some centres unmarked) [Example 445] | – | – | – | 1 to 44 | – | 0.001 to 0.99 | 1 to 44 | 1 to 44 | 0.336 | 0.001 to 0.999 | 0.001 to 0.99 | – | – | – | – | – | – |
| COC(=O)N[C@@H](C(=O)N1CCC[C@H]1c1nc(Cl)c(-c2cc3c4c(c2)OCc2cc(-c5[nH]c([C@@H]6CCCN6C(=O)[C@H](NC(=O)OC)c6ccccc6)nc5Cl)cc(c2-4)OC3)[nH]1)c1ccccc1 [Example 421] | – | – | – | 0.001 to 0.999 | – | 0.001 to 0.99 | 0.001 to 0.999 | 0.001 to 0.999 | 0.041 | 0.001 to 0.999 | 0.001 to 0.99 | – | – | – | – | – | – |
| CCC(=O)N[C@@H](C(=O)N1CCC[C@H]1c1ncc(-c2ccc3c(c2)COc2cc4c(ccc5nc([C@@H]6CCCN6C(=O)[C@@H](NC(=O)OC)C(C)C)[nH]c54)cc2-3)[nH]1)c1ccccc1 [Example 499] | – | – | – | 0.001 to 0.999 | – | 0.001 to 0.99 | 0.001 to 0.999 | – | 0.032 | – | – | 0.001 to 0.999 | 0.001 to 0.999 | 0.001 to 0.99 | – | – | – |
| COC(=O)N[C@H](C(=O)N1CC2(C[C@H]1c1nc3c([nH]1)-c1ccc(-c4ccc5c(ccc6nc([C@@H]7CCCN7C(=O)[C@H](NC(=O)OC)c7ccccc7)[nH]c65)c4)cc1CC3)OCCO2)C(C)C [Example 355] | – | – | – | 1 to 44 | – | 0.001 to 0.99 | 1 to 44 | 0.001 to 0.999 | 0.095 | 0.001 to 0.999 | 0.001 to 0.99 | – | – | – | – | – | – |
| COC(=O)N[C@H](C(=O)N1CCC[C@H]1c1ncc(-c2ccc3cc(-c4ccc(-c5cnc([C@@H]6C[C@H](F)CN6C(=O)[C@H](NC(=O)OC)c6ccccc6)[nH]5)cc4)ccc3c2)[nH]1)C(C)C [Example 129] | – | – | – | > 44 | – | 0.001 to 0.99 | > 44 | – | 0.007 | – | – | – | – | – | 0.001 to 0.999 | 0.001 to 0.999 | 0.001 to 0.99 |
| CC(=O)N[C@@H](C(=O)N1CCC[C@H]1c1ncc(-c2cc3c4c(c2)OCc2cc(-c5cnc([C@@H]6CCCN6C(=O)[C@H](NC(C)=O)c6ccccc6)[nH]5)cc(c2-4)OC3)[nH]1)c1ccccc1 [Example 419] | – | – | – | 0.001 to 0.999 | – | 0.001 to 0.99 | 0.001 to 0.999 | 1 to 44 | 0.786 | 0.001 to 0.999 | 0.001 to 0.99 | – | – | – | – | – | – |
| COC(=O)N[C@H](C(=O)N1CCC[C@H]1c1ncc(-c2ccc3cc(-c4ccc(-c5cnc([C@@H]6CCCN6C(=O)[C@H](NC(=O)OC)c6ccccc6)[nH]5)cc4)ccc3c2)[nH]1)[C@@H](C)OC(C)F (some centres unmarked) [Example 128] | – | – | – | > 44 | – | 0.001 to 0.99 | > 44 | – | 0.005 | – | – | – | – | – | 0.001 to 0.999 | 0.001 to 0.999 | 0.001 to 0.99 |
| O=C(N[C@@H](C(=O)N1CCC[C@H]1c1ncc(-c2cc3c4c(c2)OCc2cc(-c5cnc([C@@H]6CCCN6C(=O)[C@H](NC(=O)c6ccncn6)c6ccccc6)[nH]5)cc(c2-4)OC3)[nH]1)c1ccccc1)c1ccncn1 [Example 491] | – | – | – | 0.001 to 0.999 | – | 0.001 to 0.99 | 0.001 to 0.999 | – | 0.066 | – | – | 0.001 to 0.999 | 0.001 to 0.999 | 0.001 to 0.99 | – | – | – |
| COC[C@H]1C[C@@H](c2nc3ccc4cc(-c5ccc(-c6cnc([C@@H]7CCCN7C(=O)[C@H](N)c7ccccc7)[nH]6)cc5)ccc4c3[nH]2)N(C(=O)[C@@H](NC(=O)OC)C(C)C)C1 [Example 477] | – | – | – | 0.001 to 0.999 | – | 0.001 to 0.99 | 0.001 to 0.999 | 0.001 to 0.999 | 0.089 | 0.001 to 0.999 | 0.001 to 0.99 | – | – | – | – | – | – |
| COC(=O)N[C@H](C(=O)N1CCC[C@H]1c1nc(Cl)c(-c2ccc(-c3ccc(-c4[nH]c([C@@H]5CCCN5C(=O)[C@@H](NC(=O)OC)C(C)C)nc4Cl)cc3)cc2)[nH]1)C(C)C [Example 352] | – | – | – | 1 to 44 | – | 0.001 to 0.99 | 1 to 44 | 0.001 to 0.999 | 0.011 | 0.001 to 0.999 | 0.001 to 0.99 | – | – | – | – | – | – |
| COC(=O)N[C@H](C(=O)N1CCC[C@H]1c1nc2ccc3c4c(ccc3c2[nH]1)-c1ccc(-c2cnc([C@@H]3CCCN3C(=O)[C@H](NC(=O)OC)c3ccccc3)[nH]2)cc1CO4)C(C)C [Example 412] | – | – | – | 0.001 to 0.999 | – | 0.001 to 0.99 | 1 to 44 | 0.001 to 0.999 | 0.018 | 0.001 to 0.999 | 0.001 to 0.99 | – | – | – | – | – | – |
| COC(=O)N[C@H](C(=O)N1CCC[C@H]1c1nc2ccc3cc(-c4ccc5c(ccc6nc([C@@H]7[C@H]8CC[C@H](C8)N7C(=O)[C@H](NC(=O)C7CC7)c7ccccc7)[nH]c65)c4)ccc3c2[nH]1)C(C)C [Example 455] | – | – | – | 0.001 to 0.999 | – | 0.001 to 0.99 | 0.001 to 0.999 | 0.001 to 0.999 | 0.029 | 0.001 to 0.999 | 0.001 to 0.99 | – | – | – | – | – | – |
| COC(=O)N[C@H](C(=O)N1CCC[C@H]1c1nc2ccc3cc(-c4ccc(-c5cnc([C@@H]6CCCN6C(=O)[C@H](NC(=O)OC)c6ccccc6)[nH]5)cc4C#Cc4ccccc4)ccc3c2[nH]1)C(C)C [Example 439] | – | – | – | > 44 | – | 0.001 to 0.99 | 1 to 44 | 0.001 to 0.999 | 0.004 | 0.001 to 0.999 | 0.001 to 0.99 | – | – | – | – | – | – |
| COC(=O)N[C@H](C(=O)N1[C@@H]2CC[C@@H](C2)[C@H]1c1nc2ccc3cc(-c4ccc5c(ccc6nc([C@@H]7CCCN7C(=O)[C@@H](NC(=O)OC)C7CCOCC7)[nH]c65)c4)ccc3c2[nH]1)C(C)C [Example 298] | – | – | – | 1 to 44 | – | 0.001 to 0.99 | 0.001 to 0.999 | 0.001 to 0.999 | 0.077 | 0.001 to 0.999 | 0.001 to 0.99 | – | – | – | – | – | – |
| COC[C@H]1C[C@@H](c2ncc(-c3ccc(-c4ccc5c(ccc6nc([C@@H]7CCCN7C(=O)[C@H](NC(=O)OC)c7ccccc7)[nH]c65)c4)cc3)[nH]2)N(C(=O)[C@@H](NC(=O)OC)C(C)C)C1 [Example 442] | – | – | – | 0.001 to 0.999 | – | 0.001 to 0.99 | 0.001 to 0.999 | 0.001 to 0.999 | 0.029 | 0.001 to 0.999 | 0.001 to 0.99 | – | – | – | – | – | – |
| COC[C@H]1C[C@@H](c2ncc(-c3ccc(-c4ccc(-c5cnc([C@@H]6CC[C@H](C)N6C(=O)[C@@H](NC(=O)OC)C(C)C)[nH]5)cc4)cc3)[nH]2)N(C(=O)[C@H](NC(=O)C2CC2)c2ccccc2)C1 [Example 591] | – | – | – | 0.001 to 0.999 | – | 0.001 to 0.99 | 0.001 to 0.999 | – | 0.016 | – | – | 0.001 to 0.999 | 0.001 to 0.999 | 0.001 to 0.99 | – | – | – |
